Values joined by “and” are separate entries in the source; they are usually repeats but may differ in a detail not shown here. Equal values may be shown once. Numbers after ± are expanded uncertainties.
Details: Liquid; for electrical conductivity: electrochemical impedance spectroscopy; for mass density: Vibrating tube method

Compound: CCCCC[P+](CC)(CC)CC.O=S(=O)([N-]S(=O)(=O)C(F)(F)F)C(F)(F)F
- viscosity (298.15 K, 60200 kPa, Falling or rolling sphere viscometry): 188.2 ± 8.8 mPa·s
- electrical conductivity (298.15 K, 76900 kPa, Frequency=0 MHz): 0.0691 ± 0.0014 S/m
- viscosity (298.15 K, 80100 kPa, Falling or rolling sphere viscometry): 237.6 ± 13 mPa·s
- electrical conductivity (298.15 K, 99300 kPa, Frequency=0 MHz): 0.0551 ± 0.0011 S/m
- viscosity (298.15 K, 100600 kPa, Falling or rolling sphere viscometry): 299.8 ± 18 mPa·s
- viscosity (298.15 K, 120600 kPa, Falling or rolling sphere viscometry): 374.6 ± 26 mPa·s
- viscosity (298.15 K, 120900 kPa, Falling or rolling sphere viscometry): 375.1 ± 26 mPa·s
- electrical conductivity (298.15 K, 126100 kPa, Frequency=0 MHz): 0.0413 ± 0.00083 S/m
- viscosity (298.15 K, 140500 kPa, Falling or rolling sphere viscometry): 464.2 ± 35 mPa·s
- electrical conductivity (298.15 K, 149100 kPa, Frequency=0 MHz): 0.0333 ± 0.00067 S/m
- viscosity (298.15 K, 160800 kPa, Falling or rolling sphere viscometry): 575.1 ± 48 mPa·s
- viscosity (298.15 K, 180200 kPa, Falling or rolling sphere viscometry): 703.8 ± 63 mPa·s
- viscosity (298.15 K, 199500 kPa, Falling or rolling sphere viscometry): 855.3 ± 82 mPa·s
- electrical conductivity (298.15 K, 225400 kPa, Frequency=0 MHz): 0.0159 ± 0.00032 S/m
- electrical conductivity (298.15 K, 249800 kPa, Frequency=0 MHz): 0.0127 ± 0.00026 S/m
- electrical conductivity (298.16 K, 600 kPa, Frequency=0 MHz): 0.164 ± 0.0034 S/m
- electrical conductivity (298.16 K, 1600 kPa, Frequency=0 MHz): 0.162 ± 0.0032 S/m
- electrical conductivity (298.16 K, 201000 kPa, Frequency=0 MHz): 0.0201 ± 0.0004 S/m
- viscosity (303.15 K, 100 kPa, Concentric cylinders viscometry): 67.86 ± 1.5 mPa·s
- viscosity (303.15 K, 100 kPa, Falling or rolling sphere viscometry): 68.41 ± 2.4 mPa·s
- mass density (303.15 K, 100 kPa): 1298.32 ± 1.3 kg/m3 [middle of 6 runs]
- electrical conductivity (303.15 K, 101.33 kPa): 0.208 S/m and 0.207 S/m
- viscosity (303.15 K, 700 kPa, Falling or rolling sphere viscometry): 68.43 ± 2.3 mPa·s
- mass density (303.15 K, 1000 kPa): 1298.99 ± 1.3 kg/m3
- mass density (303.15 K, 5000 kPa): 1301.97 ± 1.3 kg/m3
- mass density (303.15 K, 10000 kPa): 1305.55 ± 1.3 kg/m3
- viscosity (303.15 K, 10600 kPa, Falling or rolling sphere viscometry): 78.1 ± 2.1 mPa·s
- mass density (303.15 K, 15000 kPa): 1309.08 ± 1.4 kg/m3
- mass density (303.15 K, 20000 kPa): 1312.5 ± 1.4 kg/m3
- viscosity (303.15 K, 20600 kPa, Falling or rolling sphere viscometry): 88.77 ± 2.6 mPa·s
- mass density (303.15 K, 25000 kPa): 1315.86 ± 1.4 kg/m3
- mass density (303.15 K, 30000 kPa): 1319.11 ± 1.4 kg/m3
- viscosity (303.15 K, 30400 kPa, Falling or rolling sphere viscometry): 100.3 ± 3.1 mPa·s
- mass density (303.15 K, 35000 kPa): 1322.31 ± 1.5 kg/m3
- mass density (303.15 K, 40000 kPa): 1325.42 ± 1.5 kg/m3
- viscosity (303.15 K, 40600 kPa, Falling or rolling sphere viscometry): 113.6 ± 3.9 mPa·s
- mass density (303.15 K, 45000 kPa): 1328.53 ± 1.6 kg/m3
- mass density (303.15 K, 50000 kPa): 1331.53 ± 1.6 kg/m3
- viscosity (303.15 K, 50700 kPa, Falling or rolling sphere viscometry): 128 ± 4.7 mPa·s
- viscosity (303.15 K, 60800 kPa, Falling or rolling sphere viscometry): 144.1 ± 5.7 mPa·s
- viscosity (303.15 K, 80300 kPa, Falling or rolling sphere viscometry): 179.8 ± 8.2 mPa·s
- viscosity (303.15 K, 100100 kPa, Falling or rolling sphere viscometry): 223.2 ± 12 mPa·s
- electrical conductivity (308.15 K, 101.33 kPa): 0.256 S/m and 0.255 S/m
- viscosity (313.15 K, 100 kPa, Concentric cylinders viscometry): 43.97 ± 0.99 mPa·s
- viscosity (313.15 K, 100 kPa, Falling or rolling sphere viscometry): 44.35 ± 2.3 mPa·s [middle of 5 runs]
- mass density (313.15 K, 100 kPa): 1290.13 ± 1.8 kg/m3 [middle of 6 runs]
- electrical conductivity (313.15 K, 101.33 kPa): 0.31 S/m
- viscosity (313.15 K, 700 kPa, Falling or rolling sphere viscometry): 44.4 ± 2.8 mPa·s
- mass density (313.15 K, 1000 kPa): 1291.1 ± 1.3 kg/m3
- mass density (313.15 K, 5000 kPa): 1294.18 ± 1.3 kg/m3
- mass density (313.15 K, 10000 kPa): 1297.91 ± 1.3 kg/m3
- viscosity (313.15 K, 10600 kPa, Falling or rolling sphere viscometry): 50.22 ± 1.1 mPa·s
- mass density (313.15 K, 15000 kPa): 1301.54 ± 1.3 kg/m3
- mass density (313.15 K, 20000 kPa): 1305.07 ± 1.4 kg/m3
- viscosity (313.15 K, 20600 kPa, Falling or rolling sphere viscometry): 56.64 ± 1.3 mPa·s
- mass density (313.15 K, 25000 kPa): 1308.48 ± 1.4 kg/m3
- mass density (313.15 K, 30000 kPa): 1311.85 ± 1.4 kg/m3
- viscosity (313.15 K, 30500 kPa, Falling or rolling sphere viscometry): 63.64 ± 1.5 mPa·s
- mass density (313.15 K, 35000 kPa): 1315.16 ± 1.5 kg/m3
- mass density (313.15 K, 40000 kPa): 1318.37 ± 1.5 kg/m3
- viscosity (313.15 K, 40500 kPa, Falling or rolling sphere viscometry): 71.42 ± 1.8 mPa·s
- mass density (313.15 K, 45000 kPa): 1321.53 ± 1.5 kg/m3
- mass density (313.15 K, 50000 kPa): 1324.64 ± 1.6 kg/m3
- viscosity (313.15 K, 50600 kPa, Falling or rolling sphere viscometry): 79.95 ± 2.2 mPa·s
- viscosity (313.15 K, 60600 kPa, Falling or rolling sphere viscometry): 89.14 ± 2.6 mPa·s
- viscosity (313.15 K, 80300 kPa, Falling or rolling sphere viscometry): 109.9 ± 3.7 mPa·s
- viscosity (313.15 K, 99900 kPa, Falling or rolling sphere viscometry): 134.5 ± 5.1 mPa·s
- electrical conductivity (318.15 K, 101.33 kPa): 0.371 S/m and 0.372 S/m
- electrical conductivity (323.14 K, 800 kPa, Frequency=0 MHz): 0.434 ± 0.0087 S/m
- electrical conductivity (323.14 K, 3200 kPa, Frequency=0 MHz): 0.423 ± 0.0085 S/m
- electrical conductivity (323.14 K, 101600 kPa, Frequency=0 MHz): 0.17 ± 0.0034 S/m
- electrical conductivity (323.14 K, 150900 kPa, Frequency=0 MHz): 0.113 ± 0.0023 S/m
- electrical conductivity (323.14 K, 175500 kPa, Frequency=0 MHz): 0.0922 ± 0.0019 S/m
- viscosity (323.15 K, 100 kPa, Concentric cylinders viscometry): 30.06 ± 0.68 mPa·s
- viscosity (323.15 K, 100 kPa, Falling or rolling sphere viscometry): 29.89 ± 1.3 mPa·s [middle of 5 runs]
- electrical conductivity (323.15 K, 100 kPa, Frequency=0 MHz): 0.437 ± 0.0092 S/m
- mass density (323.15 K, 100 kPa): 1281.76 ± 1.8 kg/m3 [middle of 6 runs]
- electrical conductivity (323.15 K, 101.33 kPa): 0.437 S/m and 0.44 S/m and 0.441 S/m
- viscosity (323.15 K, 700 kPa, Falling or rolling sphere viscometry): 30.1 ± 1.6 mPa·s
- mass density (323.15 K, 1000 kPa): 1282.87 ± 1.3 kg/m3
- electrical conductivity (323.15 K, 2200 kPa, Frequency=0 MHz): 0.427 ± 0.0086 S/m

— the NIST ThermoML archive (doi:10.1021/acs.jced.8b00011)
